Reference: article PMC6450719 (Biochimica et biophysica acta. Proteins and proteomics, 2018)

Molecular target: T1, human islet amyloid polypeptide (hIAPP, amylin) (Homo sapiens, UniProt P10997)
T1 sequence (P10997 34-70 limits assumed): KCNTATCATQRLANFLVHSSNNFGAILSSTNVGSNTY
Experiment: ITC
Type: binding

`O=C(O[C@@H]1Cc2c(O)cc(O)cc2O[C@@H]1c1cc(O)c(O)c(O)c1)c1cc(O)c(O)c(O)c1` [EGCG] gave a Kd of ~1100 nM.
